Measurements: the NIST ThermoML archive (doi:10.1007/s10765-019-2537-x)
“And” between values parts separate entries of the source, which are not always exact repeats. Identical values can stand only once.

Details: Liquid, transient hot wire

CCCCCCCCCCCCCCC [pentadecane]
Details	thermal conductivity
318.28 K, 1420 kPa	0.1369 W/m/K
318.31 K, 1420 kPa	0.138 W/m/K
318.36 K, 15320 kPa	0.1419 W/m/K
318.4 K, 1420 kPa	0.1376 W/m/K
318.4 K, 21080 kPa	0.1429 W/m/K
318.42 K, 21080 kPa	0.1432 W/m/K
318.44 K, 15320 kPa	0.1408 W/m/K and 0.1415 W/m/K
318.45 K, 21080 kPa	0.1432 W/m/K
318.49 K, 5220 kPa	0.1386 W/m/K
318.5 K, 10340 kPa	0.1403 W/m/K
318.52 K, 5220 kPa	0.1382 W/m/K
318.54 K, 10340 kPa	0.139 W/m/K
318.56 K, 10340 kPa	0.1394 W/m/K
318.59 K, 5220 kPa	0.1377 W/m/K
336.96 K, 20240 kPa	0.1393 W/m/K
337.02 K, 15360 kPa	0.1403 W/m/K
337.04 K, 5660 kPa	0.1338 W/m/K
337.09 K, 5660 kPa	0.1353 W/m/K
337.1 K, 20240 kPa	0.1399 W/m/K
337.13 K, 20240 kPa	0.1401 W/m/K
337.14 K, 5660 kPa	0.1361 W/m/K
337.14 K, 15360 kPa	0.1368 W/m/K
337.18 K, 1270 kPa	0.1332 W/m/K
337.2 K, 15360 kPa	0.1372 W/m/K
337.22 K, 1270 kPa	0.132 W/m/K
337.24 K, 1270 kPa	0.1338 W/m/K
337.25 K, 10510 kPa	0.1368 W/m/K
337.28 K, 10510 kPa	0.1356 W/m/K
356.45 K, 5190 kPa	0.1334 W/m/K
356.57 K, 5190 kPa	0.1301 W/m/K
356.61 K, 5190 kPa	0.131 W/m/K
356.68 K, 10160 kPa	0.1329 W/m/K
356.7 K, 1040 kPa	0.1284 W/m/K
356.71 K, 10160 kPa	0.1307 W/m/K
356.72 K, 10160 kPa	0.1314 W/m/K
356.74 K, 15190 kPa	0.1321 W/m/K
356.75 K, 1040 kPa	0.13 W/m/K
356.75 K, 20580 kPa	0.1355 W/m/K
356.79 K, 20580 kPa	0.1377 W/m/K
356.8 K, 15190 kPa	0.132 W/m/K
356.83 K, 15190 kPa	0.1341 W/m/K
356.9 K, 20580 kPa	0.1346 W/m/K
377.3 K, 5560 kPa	0.1275 W/m/K
377.31 K, 5560 kPa	0.1262 W/m/K
377.33 K, 10240 kPa	0.1296 W/m/K
377.39 K, 5560 kPa	0.1272 W/m/K
377.4 K, 10240 kPa	0.1302 W/m/K
377.44 K, 1420 kPa	0.1248 W/m/K
377.46 K, 10240 kPa	0.1284 W/m/K
377.52 K, 20480 kPa	0.131 W/m/K
377.53 K, 1420 kPa	0.1234 W/m/K
377.6 K, 1420 kPa	0.1238 W/m/K
377.6 K, 20480 kPa	0.1304 W/m/K
377.61 K, 20480 kPa	0.1326 W/m/K
377.62 K, 15010 kPa	0.1288 W/m/K
377.7 K, 15010 kPa	0.1284 W/m/K
377.73 K, 15010 kPa	0.1274 W/m/K
396.74 K, 20460 kPa	0.1297 W/m/K
396.83 K, 20460 kPa	0.1291 W/m/K
397.07 K, 20460 kPa	0.1276 W/m/K
397.22 K, 10360 kPa	0.1224 W/m/K
397.22 K, 15080 kPa	0.1248 W/m/K
397.24 K, 10360 kPa	0.1252 W/m/K
397.31 K, 15080 kPa	0.1229 W/m/K
397.32 K, 15100 kPa	0.1242 W/m/K
397.38 K, 10410 kPa	0.1225 W/m/K
397.42 K, 1330 kPa	0.1182 W/m/K
397.44 K, 5360 kPa	0.1209 W/m/K
397.47 K, 1330 kPa	0.1188 W/m/K
397.49 K, 1330 kPa	0.1165 W/m/K
397.52 K, 5360 kPa	0.1202 W/m/K
397.57 K, 5360 kPa	0.1176 W/m/K
417.11 K, 5290 kPa	0.121 W/m/K
417.13 K, 20250 kPa	0.1228 W/m/K
417.16 K, 15230 kPa	0.1204 W/m/K
417.19 K, 15230 kPa	0.1227 W/m/K
417.26 K, 15230 kPa	0.1223 W/m/K
417.27 K, 10550 kPa	0.1227 W/m/K
417.3 K, 20250 kPa	0.1195 W/m/K
417.36 K, 1130 kPa	0.1134 W/m/K
417.37 K, 1130 kPa	0.115 W/m/K
417.47 K, 10430 kPa	0.1185 W/m/K
417.48 K, 1130 kPa	0.1123 W/m/K
417.5 K, 10430 kPa	0.1178 W/m/K
436.73 K, 20320 kPa	0.1172 W/m/K
436.78 K, 20320 kPa	0.1187 W/m/K
436.9 K, 10760 kPa	0.1134 W/m/K
436.95 K, 5250 kPa	0.111 W/m/K
436.98 K, 10580 kPa	0.1145 W/m/K
437.06 K, 1280 kPa	0.1105 W/m/K
437.06 K, 15070 kPa	0.1143 W/m/K
437.08 K, 15070 kPa	0.1135 W/m/K
437.1 K, 5250 kPa	0.1106 W/m/K
437.1 K, 15070 kPa	0.1133 W/m/K
437.11 K, 1280 kPa	0.1079 W/m/K
437.12 K, 10470 kPa	0.1112 W/m/K
437.14 K, 5250 kPa	0.1103 W/m/K
437.25 K, 1280 kPa	0.1089 W/m/K
456.48 K, 20550 kPa	0.1176 W/m/K
456.52 K, 20460 kPa	0.1176 W/m/K
456.66 K, 20460 kPa	0.113 W/m/K
456.86 K, 15300 kPa	0.1132 W/m/K
456.9 K, 15300 kPa	0.1124 W/m/K
456.94 K, 15300 kPa	0.1116 W/m/K
457.02 K, 1540 kPa	0.1032 W/m/K
457.03 K, 1550 kPa	0.1063 W/m/K
457.03 K, 10370 kPa	0.1096 W/m/K
457.04 K, 1560 kPa	0.1059 W/m/K
457.18 K, 5400 kPa	0.1082 W/m/K
457.32 K, 5440 kPa	0.1063 W/m/K
457.33 K, 10250 kPa	0.1104 W/m/K
457.37 K, 10270 kPa	0.1084 W/m/K
457.4 K, 5440 kPa	0.1059 W/m/K
476.68 K, 20310 kPa	0.114 W/m/K
476.72 K, 15160 kPa	0.1061 W/m/K
476.9 K, 20850 kPa	0.1106 W/m/K
476.95 K, 15160 kPa	0.1094 W/m/K
476.97 K, 10330 kPa	0.1092 W/m/K
477 K, 15160 kPa	0.1082 W/m/K
477.06 K, 20970 kPa	0.1128 W/m/K
477.24 K, 5120 kPa	0.1033 W/m/K
477.29 K, 1080 kPa	0.0998 W/m/K
477.29 K, 10330 kPa	0.1023 W/m/K
477.3 K, 5120 kPa	0.1024 W/m/K
477.3 K, 10330 kPa	0.1044 W/m/K
477.32 K, 5120 kPa	0.1031 W/m/K
477.33 K, 1080 kPa	0.0988 W/m/K
477.61 K, 1080 kPa	0.1038 W/m/K
496.62 K, 20420 kPa	0.111 W/m/K
496.9 K, 20420 kPa	0.1069 W/m/K
496.94 K, 10500 kPa	0.102 W/m/K
496.95 K, 5430 kPa	0.0983 W/m/K
496.95 K, 20420 kPa	0.1039 W/m/K
496.96 K, 15010 kPa	0.1033 W/m/K
496.97 K, 15010 kPa	0.1021 W/m/K and 0.105 W/m/K
497 K, 10530 kPa	0.1008 W/m/K
497.04 K, 10470 kPa	0.1024 W/m/K
497.1 K, 5410 kPa	0.0981 W/m/K
497.15 K, 5430 kPa	0.0965 W/m/K
516.81 K, 15180 kPa	0.104 W/m/K
516.84 K, 20110 kPa	0.0998 W/m/K
516.89 K, 20110 kPa	0.1031 W/m/K
517 K, 15180 kPa	0.0984 W/m/K
517 K, 20100 kPa	0.1021 W/m/K
517.03 K, 15180 kPa	0.099 W/m/K
517.12 K, 5490 kPa	0.0948 W/m/K
517.19 K, 5490 kPa	0.094 W/m/K
517.2 K, 5490 kPa	0.0941 W/m/K
536.59 K, 20650 kPa	0.1039 W/m/K and 0.1025 W/m/K
536.85 K, 20650 kPa	0.0995 W/m/K
536.99 K, 15650 kPa	0.1001 W/m/K
537.13 K, 15650 kPa	0.0975 W/m/K
537.14 K, 10120 kPa	0.0972 W/m/K
537.39 K, 5310 kPa	0.0872 W/m/K
556.55 K, 5420 kPa	0.0851 W/m/K
556.82 K, 15300 kPa	0.1002 W/m/K
556.9 K, 20180 kPa	0.0999 W/m/K
556.93 K, 10380 kPa	0.0967 W/m/K
557 K, 20180 kPa	0.0986 W/m/K
557.05 K, 10380 kPa	0.0943 W/m/K
557.06 K, 20180 kPa	0.098 W/m/K
557.12 K, 15300 kPa	0.0941 W/m/K
557.14 K, 15300 kPa	0.0924 W/m/K
576.55 K, 20450 kPa	0.0998 W/m/K
576.95 K, 20450 kPa	0.0961 W/m/K
577.01 K, 10240 kPa	0.0944 W/m/K
577.06 K, 20450 kPa	0.0928 W/m/K
577.08 K, 15190 kPa	0.0923 W/m/K
577.1 K, 5140 kPa	0.0897 W/m/K
577.12 K, 10300 kPa	0.0889 W/m/K
577.12 K, 15190 kPa	0.0924 W/m/K
577.15 K, 15190 kPa	0.09 W/m/K
577.16 K, 10320 kPa	0.0907 W/m/K
577.17 K, 5140 kPa	0.0888 W/m/K
577.25 K, 5140 kPa	0.0876 W/m/K
